Test results: paper PMC9238327, “RG100204, A Novel Aquaporin-9 Inhibitor, Reduces Septic Cardiomyopathy and Multiple Organ Failure in Murine Sepsis” (Frontiers in Immunology, 2022)

How the values were obtained:
[1] = target: T1, Aquaporin 9 (AQP9) (Mus musculus, UniProt Q9JJJ3); assay: water and glycerol permeability in CHO cells expressing mouse AQP9 (calcein fluorescence); type: cell-based
T1 sequence (Q9JJJ3 1-295): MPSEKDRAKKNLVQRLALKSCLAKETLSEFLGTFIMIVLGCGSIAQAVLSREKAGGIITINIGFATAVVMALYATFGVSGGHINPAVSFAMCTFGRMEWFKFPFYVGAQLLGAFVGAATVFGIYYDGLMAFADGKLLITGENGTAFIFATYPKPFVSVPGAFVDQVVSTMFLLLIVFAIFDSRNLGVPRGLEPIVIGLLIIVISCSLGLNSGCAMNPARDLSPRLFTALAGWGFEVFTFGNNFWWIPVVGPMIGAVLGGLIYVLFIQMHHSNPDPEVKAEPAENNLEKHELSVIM

[2] = target: T1, Aquaporin 9 (AQP9); assay: glycerol, water and H2O2 permeability in CHO cells expressing mouse AQP9 (calcein / HyPer-3 fluorescence); type: cell-based

Structure (SMILES)	IC50 [1]	IC50 [2]
O=C(CCc1ccc(O)cc1)c1c(O)cc(O)cc1O [Phlor, phloretin]	~720 nM	
CCn1c(SCC(=O)Nc2nnc(-c3ccc(OC(C)C)cc3)s2)nnc1C(C)C [RG, RG100204]		~76 nM
